Here are results for 25 compounds from patent publication US20230365592A1 (Agios Pharmaceuticals, Inc., priority 2022, published 2023).

Molecules are shown by their SMILES. Where only a bound is given, the exact number is not on record here.

In general, AC50 refers to the midpoint of the concentration-response curve, whichever way the signal moves.

The assay addresses T1, human PAH with the R408W mutation (Homo sapiens, UniProt P00439, R408W).
T1 construct: expressed in transfected cells
T1 sequence (P00439 1-452 R408W): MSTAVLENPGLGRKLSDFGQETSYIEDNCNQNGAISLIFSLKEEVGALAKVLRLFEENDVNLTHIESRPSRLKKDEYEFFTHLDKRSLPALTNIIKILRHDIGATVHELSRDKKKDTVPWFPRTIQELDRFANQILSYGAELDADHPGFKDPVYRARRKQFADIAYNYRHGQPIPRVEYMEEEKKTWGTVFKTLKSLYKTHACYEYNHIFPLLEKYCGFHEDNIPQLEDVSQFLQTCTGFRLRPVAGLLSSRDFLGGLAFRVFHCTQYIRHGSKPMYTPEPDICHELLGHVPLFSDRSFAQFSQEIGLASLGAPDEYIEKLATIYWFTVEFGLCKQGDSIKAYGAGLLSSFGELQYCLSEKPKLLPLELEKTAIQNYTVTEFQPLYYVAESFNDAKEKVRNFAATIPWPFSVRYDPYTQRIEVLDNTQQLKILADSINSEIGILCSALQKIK
The assay is described as follows: Cell Based Phenylalanine Flux Assay.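 Also: after compound treatment, cells received sepiapterin plus isotope-labelled Phenylalanine for 4 hours, then labelled Tyrosine in the medium was quantified, 10-point 2-fold dilution series run in duplicate.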 The following applies: A375 cells expressing human R408W PAH; 24 hrs compound incubation; 13C-Tyrosine by LC-MS; average where tested multiple times; read-out: AC50.
As to `O=C(c1nnc(-c2ncccc2F)o1)N1CCc2[nH]cnc2[C@H]1c1cc2c(OC(F)F)cccn2n1` [Example 1657, (S)-(4-(4-(difluoromethoxy)pyrazolo[1,5-a]pyridin-2-yl)-6,7-dihydro-1H-imidazo[4,5-c]pyridin-5(4H)-yl)(5-(3-fluoropyridin-2-yl)-1,3,4-oxadiazol-2-yl)methanone], the AC50 was 500 to 1000 nM.

Regarding `Cc1c(-c2nnc(C(=O)N3CCc4[nH]cnc4[C@H]3c3cc4c(OC(F)F)cccn4n3)o2)cnn1C` [Example 1658, (S)-(4-(4-(difluoromethoxy)pyrazolo[1,5-a]pyridin-2-yl)-6,7-dihydro-1H-imidazo[4,5-c]pyridin-5(4H)-yl)(5-(1,5-dimethyl-1H-pyrazol-4-yl)-1,3,4-oxadiazol-2-yl)methanone], the AC50 was in the range of 500 to 1000 nM. With `O=C(c1nnc(-c2cnn(C(F)F)c2)o1)N1CCc2[nH]cnc2[C@H]1c1cc2c(OC(F)F)cccn2n1` [Example 1660, (S)-(4-(4-(difluoromethoxy)pyrazolo[1,5-a]pyridin-2-yl)-6,7-dihydro-1H-imidazo[4,5-c]pyridin-5(4H)-yl)(5-(1-(difluoromethyl)-1H-pyrazol-4-yl)-1,3,4-oxadiazol-2-yl)methanone] the figure was 500 to 1000 nM; with `O=C(c1nnc(-c2ccn(C(F)F)n2)o1)N1CCc2[nH]cnc2[C@H]1c1cc2c(OC(F)F)cccn2n1` [Example 1662, (S)-(4-(4-(difluoromethoxy)pyrazolo[1,5-a]pyridin-2-yl)-6,7-dihydro-1H-imidazo[4,5-c]pyridin-5(4H)-yl)(5-(1-(difluoromethyl)-1H-pyrazol-3-yl)-1,3,4-oxadiazol-2-yl)methanone], 500 to 1000 nM; with `O=C(c1nnc(-c2ccn(C(F)F)n2)o1)N1CCc2[nH]cnc2[C@@H]1c1cc2c(OC(F)F)cccn2n1` [Example 1663, (R)-(4-(4-(difluoromethoxy)pyrazolo[1,5-a]pyridin-2-yl)-6,7-dihydro-1H-imidazo[4,5-c]pyridin-5(4H)-yl)(5-(1-(difluoromethyl)-1H-pyrazol-3-yl)-1,3,4-oxadiazol-2-yl)methanone], over 5000 nM. As for `Clc1cccn2nc([C@@H]3c4nc[nH]c4CCN3c3ncccn3)cc12` [Example 1664, (S)4-(4-chloropyrazolo[1,5-a]pyridin-2-yl)-5-(pyrimidin-2-yl)-4,5,6,7-tetrahydro-1H-imidazo[4,5-c]pyridine], the concentration at half-maximal activity (AC50) is under 500 nM.

Consider `Clc1cccn2nc([C@H]3c4nc[nH]c4CCN3c3ncccn3)cc12` [Example 1665, (R)-4-(4-chloropyrazolo[1,5-a]pyridin-2-yl)-5-(pyrimidin-2-yl)-4,5,6,7-tetrahydro-1H-imidazo[4,5-c]pyridine], for which the AC50 lay within 1000 to 5000 nM. With `Cc1ccc2c(C(=O)N3CCc4[nH]cnc4[C@@H]3c3cc4c(C(F)(F)F)cccn4n3)cnn2c1` [Example 1667, (R)-(6-methylpyrazolo[1,5-a]pyridin-3-yl)(4-(4-(trifluoromethyl)pyrazolo[1,5-a]pyridin-2-yl)-6,7-dihydro-1H-imidazo[4,5-c]pyridin-5(4H)-yl)methanone] the figure was over 5000 nM; with `Cc1ccc2c(C(=O)N3CCc4[nH]cnc4[C@@H]3c3cc4c(C)cccn4n3)cnn2c1` [Example 1669, (R)-(4-(4-methylpyrazolo[1,5-a]pyridin-2-yl)-6,7-dihydro-1H-imidazo[4,5-c]pyridin-5(4H)-yl)(6-methylpyrazolo[1,5-a]pyridin-3-yl)methanone], over 5000 nM.

As to `Cc1ccc2c(C(=O)N3CCc4[nH]cnc4[C@H]3c3cc4c(F)cccn4n3)cnn2c1` [Example 1670, (S)-(4-(4-fluoropyrazolo[1,5-a]pyridin-2-yl)-6,7-dihydro-1H-imidazo[4,5-c]pyridin-5(4H)-yl)(6-methylpyrazolo[1,5-a]pyridin-3-yl)methanone], the half-maximal activity concentration (AC50) lay within 500 to 1000 nM. With `O=C(c1cnn2cc(C3CC3)ccc12)N1CCc2[nH]cnc2[C@H]1c1cc2c(F)cccn2n1` [Example 1672, (S)-(6-cyclopropylpyrazolo[1,5-a]pyridin-3-yl)(4-(4-fluoropyrazolo[1,5-a]pyridin-2-yl)-6,7-dihydro-1H-imidazo[4,5-c]pyridin-5(4H)-yl)methanone] the figure was under 500 nM. For `COc1ccc2c(C(=O)N3CCc4[nH]cnc4[C@H]3c3cc4c(C(F)(F)F)cccn4n3)cnn2c1` [Example 1674, (S)-(6-methoxypyrazolo[1,5-a]pyridin-3-yl)(4-(4-(trifluoromethyl)pyrazolo[1,5-a]pyridin-2-yl)-6,7-dihydro-1H-imidazo[4,5-c]pyridin-5(4H)-yl)methanone], the half-maximal activity concentration (AC50) was in the range of 500 to 1000 nM. With `COc1ccc2c(C(=O)N3CCc4[nH]cnc4[C@H]3c3cc4c(C(F)F)cccn4n3)cnn2c1` [Example 1676, (S)-(4-(4-(difluoromethyl)pyrazolo[1,5-a]pyridin-2-yl)-6,7-dihydro-1H-imidazo[4,5-c]pyridin-5(4H)-yl)(6-methoxypyrazolo[1,5-a]pyridin-3-yl)methanone] the figure was 500 to 1000 nM. `COc1ccc2c(C(=O)N3CCc4[nH]cnc4[C@@H]3c3cc4c(C(F)F)cccn4n3)cnn2c1` [Example 1677, (R)-(4-(4-(difluoromethyl)pyrazolo[1,5-a]pyridin-2-yl)-6,7-dihydro-1H-imidazo[4,5-c]pyridin-5(4H)-yl)(6-methoxypyrazolo[1,5-a]pyridin-3-yl)methanone]: the AC50 was over 5000 nM. With `O=C(c1nnc(-c2ncccc2F)o1)N1CCc2[nH]cnc2[C@@H]1c1cc2c(OC(F)(F)F)cccn2n1` [Example 1678, (R)-(5-(3-fluoropyridin-2-yl)-1,3,4-oxadiazol-2-yl)(4-(4-(trifluoromethoxy)pyrazolo[1,5-a]pyridin-2-yl)-6,7-dihydro-1H-imidazo[4,5-c]pyridin-5(4H)-yl)methanone] the figure was over 5000 nM; with `O=C(c1nnc(-c2ncccc2F)o1)N1CCc2[nH]cnc2[C@H]1c1cc2c(OC(F)(F)F)cccn2n1` [Example 1679, (S)-(5-(3-fluoropyridin-2-yl)-1,3,4-oxadiazol-2-yl)(4-(4-(trifluoromethoxy)pyrazolo[1,5-a]pyridin-2-yl)-6,7-dihydro-1H-imidazo[4,5-c]pyridin-5(4H)-yl)methanone], under 500 nM; with `O=C(c1nnc(-c2cnccn2)o1)N1CCc2[nH]cnc2[C@H]1c1cc2c(OC(F)(F)F)cccn2n1` [Example 1680, (S)-(5-(pyrazin-2-yl)-1,3,4-oxadiazol-2-yl)(4-(4-(trifluoromethoxy)pyrazolo[1,5-a]pyridin-2-yl)-6,7-dihydro-1H-imidazo[4,5-c]pyridin-5(4H)-yl)methanone], 500 to 1000 nM.

Take `Cn1cc(-c2nnc(C(=O)N3CCc4[nH]cnc4[C@H]3c3cc4c(OC(F)(F)F)cccn4n3)o2)cn1` [Example 1682, (S)-(5-(1-methyl-1H-pyrazol-4-yl)-1,3,4-oxadiazol-2-yl)(4-(4-(trifluoromethoxy)pyrazolo[1,5-a]pyridin-2-yl)-6,7-dihydro-1H-imidazo[4,5-c]pyridin-5(4H)-yl)methanone]: the concentration at half-maximal activity (AC50) is under 500 nM. With `CC(C)(C)c1nnc(C(=O)N2CCc3[nH]cnc3[C@H]2c2cc3c(OC(F)F)cccn3n2)o1` [Example 1687, (S)-(5-(tert-butyl)-1,3,4-oxadiazol-2-yl)(4-(4-(difluoromethoxy)pyrazolo[1,5-a]pyridin-2-yl)-6,7-dihydro-1H-imidazo[4,5-c]pyridin-5(4H)-yl)methanone] the figure was 500 to 1000 nM; with `O=C(c1nnc(-c2ccccn2)o1)N1CCc2[nH]cnc2[C@H]1c1cc2c(OC(F)F)cccn2n1` [Example 1689, (S)-(4-(4-(difluoromethoxy)pyrazolo[1,5-a]pyridin-2-yl)-6,7-dihydro-1H-imidazo[4,5-c]pyridin-5(4H)-yl)(5-(pyridin-2-yl)-1,3,4-oxadiazol-2-yl)methanone], under 500 nM. With `Cc1cccc2cc([C@@H]3c4nc[nH]c4CCN3C(=O)c3cnn4cc(CN(C)C)ccc34)nn12` [Example 1690, (S)-(6-((dimethylamino)methyl)pyrazolo[1,5-a]pyridin-3-yl)(4-(7-methylpyrazolo[1,5-a]pyridin-2-yl)-6,7-dihydro-1H-imidazo[4,5-c]pyridin-5(4H)-yl)methanone] the figure was 500 to 1000 nM; with `Cc1cccc2cc([C@H]3c4nc[nH]c4CCN3C(=O)c3cnn4cc(CN(C)C)ccc34)nn12` [Example 1691, (R)-(6-((dimethylamino)methyl)pyrazolo[1,5-a]pyridin-3-yl)(4-(7-methylpyrazolo[1,5-a]pyridin-2-yl)-6,7-dihydro-1H-imidazo[4,5-c]pyridin-5(4H)-yl)methanone], over 5000 nM. With `FC(F)(F)c1cccn2nc([C@@H]3c4nc[nH]c4CCN3c3ncccn3)cc12` [Example 1692, (S)-5-(pyrimidin-2-yl)-4-(4-(trifluoromethyl)pyrazolo[1,5-a]pyridin-2-yl)-4,5,6,7-tetrahydro-1H-imidazo[4,5-c]pyridine] the figure was under 500 nM; with `COc1ccc2c(C(=O)N3CCc4[nH]cnc4[C@H]3c3cc4c(F)cccn4n3)cnn2c1` [Example 1696, (S)-(4-(4-fluoropyrazolo[1,5-a]pyridin-2-yl)-6,7-dihydro-1H-imidazo[4,5-c]pyridin-5(4H)-yl)(6-methoxypyrazolo[1,5-a]pyridin-3-yl)methanone], 500 to 1000 nM. On to `COc1ccc2c(C(=O)N3CCc4[nH]cnc4[C@H]3c3cc4c(Cl)cccn4n3)cnn2c1` [Example 1698, (S)-(4-(4-chloropyrazolo[1,5-a]pyridin-2-yl)-6,7-dihydro-1H-imidazo[4,5-c]pyridin-5(4H)-yl)(6-methoxypyrazolo[1,5-a]pyridin-3-yl)methanone], for which the AC50 was under 500 nM.
